In patent US10160747B2, “Compounds and methods for kinase modulation, and indications therefor” (Plexxikon Inc., priority 2016, dated 2018) one finds IC50 data, which are given here for 20 compounds.

Assay [1] relates to MOLM-14 D835Y (endogenous FLT3 ITD and transfected FLT3 D835Y). As to the kind of experiment: MOLM-14 D835Y cell proliferation assay (CellTiter-Glo). The format is cell-based. Conditions: Homo sapiens, MOLM-14, 72 h; 3 d growth, GMean. In a few lines:
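Three-day proliferation at 37 °C/5% CO2 of FLT3-ITD MOLM-14 lines with D835Y or F691L mutation, seeded 1×10^4 per well. Compounds at eight points, top 1 μM final, 0.2% DMSO. ATP luminescence (CellTiter-Glo) gives IC50.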

A further assay addresses T1, c-KIT (Homo sapiens, UniProt P10721).
T1 construct: purchased Millipore 14-559K
As to the kind of experiment: c-KIT recombinant enzyme kinase assay (AlphaScreen). In kind it is biochemical. The following applies: 100 ATP, 8 pt. In a few lines: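 AlphaScreen proximity signal at 580 nm, from PY20 acceptor and streptavidin donor beads, measures tyrosine phosphorylation of 30 nM biotin-poly(Glu4-Tyr) peptide by recombinant kinase. ATP: 10 μM (FLT3 mutants), 100 μM (c-KIT). IC50 from loss of signal.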

pIC50: −log10 of the molar value.

T1 sequence (P10721 26-976): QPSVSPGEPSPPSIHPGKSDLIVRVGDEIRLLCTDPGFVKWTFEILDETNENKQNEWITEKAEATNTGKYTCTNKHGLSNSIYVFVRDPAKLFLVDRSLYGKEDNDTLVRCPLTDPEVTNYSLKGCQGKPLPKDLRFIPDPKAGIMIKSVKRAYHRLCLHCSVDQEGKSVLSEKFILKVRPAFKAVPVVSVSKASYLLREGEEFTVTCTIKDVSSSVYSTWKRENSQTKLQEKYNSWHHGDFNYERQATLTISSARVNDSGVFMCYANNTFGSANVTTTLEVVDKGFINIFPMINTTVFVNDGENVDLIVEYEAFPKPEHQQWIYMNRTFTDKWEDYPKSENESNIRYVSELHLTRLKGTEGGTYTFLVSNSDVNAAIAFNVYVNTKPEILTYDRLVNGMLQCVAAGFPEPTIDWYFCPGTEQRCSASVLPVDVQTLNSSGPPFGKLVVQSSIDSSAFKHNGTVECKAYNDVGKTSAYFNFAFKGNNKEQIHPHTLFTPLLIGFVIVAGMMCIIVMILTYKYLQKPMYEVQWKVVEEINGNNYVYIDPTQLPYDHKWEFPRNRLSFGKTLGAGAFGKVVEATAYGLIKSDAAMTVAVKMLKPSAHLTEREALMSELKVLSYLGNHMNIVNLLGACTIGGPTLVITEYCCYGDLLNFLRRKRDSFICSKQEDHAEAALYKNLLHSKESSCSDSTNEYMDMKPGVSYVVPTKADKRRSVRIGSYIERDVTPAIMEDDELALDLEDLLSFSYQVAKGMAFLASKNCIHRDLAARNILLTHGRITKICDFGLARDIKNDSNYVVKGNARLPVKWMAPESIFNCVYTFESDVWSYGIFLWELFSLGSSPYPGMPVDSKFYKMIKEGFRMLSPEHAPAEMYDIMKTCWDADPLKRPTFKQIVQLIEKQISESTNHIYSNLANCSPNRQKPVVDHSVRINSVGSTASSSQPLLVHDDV

In the case of `Cn1cc(Nc2ncc(-c3cc(F)c(CC(=O)Nc4cc(C(F)(F)F)ccn4)cc3F)cn2)cn1` [Compound P-0019, 2-[2,5-difluoro-4-[2-[(1-methylpyrazol-4-yl)amino]pyrimidin-5-yl]phenyl]-N-[4-(trifluoromethyl)-2-pyridyl]acetamide], the pIC50 (in assay [1]; on c-KIT) was 5.00 to 10.00 in each case.
For the compound `COc1ncc(NC(=O)Cc2cc(F)c(-c3cnc(Nc4cnn(C)c4)nc3)cc2F)cc1C(F)(F)F` [Compound P-0208, 2-[2,5-difluoro-4-[2-[(1-methylpyrazol-4-yl)amino]pyrimidin-5-yl]phenyl]-N-[6-methoxy-5-(trifluoromethyl)-3-pyridyl]acetamide], the negative logarithm of the IC50 (pIC50) (in assay [1]; at c-KIT) was 5.00 to 10.00 each time.
As for `O=C(Cc1ccc(-c2cnc(Nc3cnn(C(F)F)c3)nc2)cc1)Nc1cncc(C(F)(F)F)c1` [Compound P-0209, 2-[4-[2-[[1-(difluoromethyl)pyrazol-4-yl]amino]pyrimidin-5-yl]phenyl]-N-[5-(trifluoromethyl)-3-pyridyl]acetamide], the pIC50 (in assay [1]; on c-KIT) was 5.00 to 10.00 each time.
In the case of `O=C(Cc1ccc(-c2cnc(Nc3cnn(C4CC4)c3)nc2)cc1)Nc1ccc(C(F)(F)F)nc1` [Compound P-0235, 2-[4-[2-[(1-cyclopropylpyrazol-4-yl)amino]pyrimidin-5-yl]phenyl]-N-[6-(trifluoromethyl)-3-pyridyl]acetamide], the negative-log IC50 (pIC50) (in assay [1]; on c-KIT) was 5.00 to 10.00 throughout.
Consider `O=C(Cc1ccc(-c2cnc(Nc3cnn(C4CC4)c3)nc2)cc1F)Nc1ccc(C(F)(F)F)nc1` [Compound P-0242, 2-[4-[2-[(1-cyclopropylpyrazol-4-yl)amino]pyrimidin-5-yl]-2-fluoro-phenyl]-N-[6-(trifluoromethyl)-3-pyridyl]acetamide], for which the negative logarithm of the IC50 (pIC50) (in assay [1]; at c-KIT) was 5.00 to 10.00 throughout.
In the case of `CCn1cc(Nc2ncc(-c3cc(F)c(CC(=O)Nc4cnc(OC)c(C(F)(F)F)c4)cc3F)cn2)cn1` [Compound P-0247, 2-[4-[2-[(1-ethylpyrazol-4-yl)amino]pyrimidin-5-yl]-2,5-difluoro-phenyl]-N-[6-methoxy-5-(trifluoromethyl)-3-pyridyl]acetamide], the pIC50 (in assay [1]; on c-KIT) was 5.00 to 10.00 in each case.
For the compound `CCn1cc(Nc2ncc(-c3ccc(CC(=O)Nc4cc(C(F)(F)F)ccn4)cc3)cn2)cn1` [Compound P-0250, 2-[4-[2-[(1-ethylpyrazol-4-yl)amino]pyrimidin-5-yl]phenyl]-N-[4-(trifluoromethyl)-2-pyridyl]acetamide], the pIC50 (in assay [1]; at c-KIT) was 5.00 to 10.00 throughout.
For `O=C(Cc1ccc(-c2cnc(Nc3cnn(C4CC4)c3)nc2)cc1F)Nc1cnc(Cl)c(C(F)(F)F)c1` [Compound P-0240, N-[6-chloro-5-(trifluoromethyl)-3-pyridyl]-2-[4-[2-[(1-cyclopropylpyrazol-4-yl)amino]pyrimidin-5-yl]-2-fluoro-phenyl]acetamide], the negative-log IC50 (pIC50) (in assay [1]; on c-KIT) was 5.00 to 10.00 throughout.
As for `Cn1cnc(Nc2ncc(-c3ccc(CC(=O)Nc4cc(C(F)(F)F)ccn4)cc3)cn2)c1` [Compound P-0022, 2-[4-[2-[(1-methylimidazol-4-yl)amino]pyrimidin-5-yl]phenyl]-N-[4-(trifluoromethyl)-2-pyridyl]acetamide], the negative-log IC50 (pIC50) (in assay [1]; on c-KIT) was 5.00 to 10.00 each time.
Consider `O=C(Cc1ccc(-c2cnc(Nc3cnn(C4CC4)c3)nc2)cc1)Nc1cc(C(F)(F)F)ccn1` [Compound P-0237, 2-[4-[2-[(1-cyclopropylpyrazol-4-yl)amino]pyrimidin-5-yl]phenyl]-N-[4-(trifluoromethyl)-2-pyridyl]acetamide], for which the negative-log IC50 (pIC50) (in assay [1]; on c-KIT) was 5.00 to 10.00 each time.
Take `CCn1cc(Nc2ncc(-c3ccc(CC(=O)Nc4cnc(OC)c(C(F)(F)F)c4)cc3)cn2)cn1` [Compound P-0253, 2-[4-[2-[(1-ethylpyrazol-4-yl)amino]pyrimidin-5-yl]phenyl]-N-[6-methoxy-5-(trifluoromethyl)-3-pyridyl]acetamide]: the pIC50 (in assay [1]; on c-KIT) was 5.00 to 10.00 in each case.
On to `CCn1cc(Nc2ncc(-c3ccc(CC(=O)Nc4ccc(C(F)(F)F)cn4)c(F)c3)cn2)cn1` [Compound P-0256, 2-[4-[2-[(1-ethylpyrazol-4-yl)amino]pyrimidin-5-yl]-2-fluoro-phenyl]-N-[5-(trifluoromethyl)-2-pyridyl]acetamide], for which the pIC50 (in assay [1]; at c-KIT) was 5.00 to 10.00 in each case.
Take `COc1ncc(NC(=O)Cc2ccc(-c3cnc(Nc4cnn(C5CC5)c4)nc3)cc2F)cc1C(F)(F)F` [Compound P-0241, 2-[4-[2-[(1-cyclopropylpyrazol-4-yl)amino]pyrimidin-5-yl]-2-fluoro-phenyl]-N-[6-methoxy-5-(trifluoromethyl)-3-pyridyl]acetamide]: the negative logarithm of the IC50 (pIC50) (in assay [1]; at c-KIT) was 5.00 to 10.00 in each case.
For the compound `COc1ncc(NC(=O)Cc2ccc(-c3cnc(Nc4cn[nH]c4C)nc3)cc2)cc1C(F)(F)F` [Compound P-0221, N-[6-methoxy-5-(trifluoromethyl)-3-pyridyl]-2-[4-[2-[(5-methyl-1H-pyrazol-4-yl)amino]pyrimidin-5-yl]phenyl]acetamide], the negative logarithm of the IC50 (pIC50) (in assay [1]; at c-KIT) was 5.00 to 10.00 in each case.
With `Cc1nn(C)cc1Nc1ncc(-c2ccc(CC(=O)Nc3cnc(C)c(C(F)(F)F)c3)cc2)cn1` [Compound P-0228, 2-[4-[2-[(1,3-dimethylpyrazol-4-yl)amino]pyrimidin-5-yl]phenyl]-N-[6-methyl-5-(trifluoromethyl)-3-pyridyl]acetamide], the negative-log IC50 (pIC50) (in assay [1]; at c-KIT) was 5.00 to 10.00 each time.
As for `CCn1cc(Nc2ncc(-c3ccc(CC(=O)Nc4cnc(C)c(C(F)(F)F)c4)c(F)c3)cn2)cn1` [Compound P-0261, 2-[4-[2-[(1-ethylpyrazol-4-yl)amino]pyrimidin-5-yl]-2-fluoro-phenyl]-N-[6-methyl-5-(trifluoromethyl)-3-pyridyl]acetamide], the negative-log IC50 (pIC50) (in assay [1]; at c-KIT) was 5.00 to 10.00 in each case.
For the compound `COc1ncc(NC(=O)Cc2ccc(-c3cnc4[nH]nc(C5CC5)c4c3)cc2F)cc1C(F)(F)F` [Compound P-0262, 2-[4-(3-cyclopropyl-1H-pyrazolo[3,4-b]pyridin-5-yl)-2-fluoro-phenyl]-N-[6-methoxy-5-(trifluoromethyl)-3-pyridyl]acetamide], the negative-log IC50 (pIC50) (in assay [1]; at c-KIT) was 5.00 to 10.00 throughout.
`Cn1cc(Nc2ncc(-c3cc(F)c(CC(=O)Nc4cncc(C(F)(F)F)c4)cc3F)cn2)cn1` [Compound P-0207, 2-[2,5-difluoro-4-[2-[(1-methylpyrazol-4-yl)amino]pyrimidin-5-yl]phenyl]-N-[5-(trifluoromethyl)-3-pyridyl]acetamide]: the pIC50 (in assay [1]; on c-KIT) was 5.00 to 10.00 each time.
Regarding `CCn1cc(Nc2ncc(-c3ccc(CC(=O)Nc4cncc(C(F)(F)F)c4)c(F)c3)cn2)cn1` [Compound P-0258, 2-[4-[2-[(1-ethylpyrazol-4-yl)amino]pyrimidin-5-yl]-2-fluoro-phenyl]-N-[5-(trifluoromethyl)-3-pyridyl]acetamide], the negative logarithm of the IC50 (pIC50) (in assay [1]; on c-KIT) was 5.00 to 10.00 throughout.
Turning to `CCn1cc(Nc2ncc(-c3ccc(CC(=O)Nc4cc(C(F)(F)F)ccn4)c(F)c3)cn2)cn1` [Compound P-0255, 2-[4-[2-[(1-ethylpyrazol-4-yl)amino]pyrimidin-5-yl]-2-fluoro-phenyl]-N-[4-(trifluoromethyl)-2-pyridyl]acetamide], the negative logarithm of the IC50 (pIC50) (in assay [1]; on c-KIT) was 5.00 to 10.00 in each case.
